Test results: ChEMBL document CHEMBL3108715, “Pan-histone demethylase inhibitors simultaneously targeting Jumonji C and lysine-specific demethylases display high anticancer activities” (J Med Chem, 2014)
Activity calls are given as the source filed them. The calls are words filed in the database; no cut-off is given here.

Assays:
[1] = molecular target: T1, Lysine-specific demethylase 2A (Homo sapiens, UniProt Q9Y2K7)
T1 sequence (Q9Y2K7 whole entry): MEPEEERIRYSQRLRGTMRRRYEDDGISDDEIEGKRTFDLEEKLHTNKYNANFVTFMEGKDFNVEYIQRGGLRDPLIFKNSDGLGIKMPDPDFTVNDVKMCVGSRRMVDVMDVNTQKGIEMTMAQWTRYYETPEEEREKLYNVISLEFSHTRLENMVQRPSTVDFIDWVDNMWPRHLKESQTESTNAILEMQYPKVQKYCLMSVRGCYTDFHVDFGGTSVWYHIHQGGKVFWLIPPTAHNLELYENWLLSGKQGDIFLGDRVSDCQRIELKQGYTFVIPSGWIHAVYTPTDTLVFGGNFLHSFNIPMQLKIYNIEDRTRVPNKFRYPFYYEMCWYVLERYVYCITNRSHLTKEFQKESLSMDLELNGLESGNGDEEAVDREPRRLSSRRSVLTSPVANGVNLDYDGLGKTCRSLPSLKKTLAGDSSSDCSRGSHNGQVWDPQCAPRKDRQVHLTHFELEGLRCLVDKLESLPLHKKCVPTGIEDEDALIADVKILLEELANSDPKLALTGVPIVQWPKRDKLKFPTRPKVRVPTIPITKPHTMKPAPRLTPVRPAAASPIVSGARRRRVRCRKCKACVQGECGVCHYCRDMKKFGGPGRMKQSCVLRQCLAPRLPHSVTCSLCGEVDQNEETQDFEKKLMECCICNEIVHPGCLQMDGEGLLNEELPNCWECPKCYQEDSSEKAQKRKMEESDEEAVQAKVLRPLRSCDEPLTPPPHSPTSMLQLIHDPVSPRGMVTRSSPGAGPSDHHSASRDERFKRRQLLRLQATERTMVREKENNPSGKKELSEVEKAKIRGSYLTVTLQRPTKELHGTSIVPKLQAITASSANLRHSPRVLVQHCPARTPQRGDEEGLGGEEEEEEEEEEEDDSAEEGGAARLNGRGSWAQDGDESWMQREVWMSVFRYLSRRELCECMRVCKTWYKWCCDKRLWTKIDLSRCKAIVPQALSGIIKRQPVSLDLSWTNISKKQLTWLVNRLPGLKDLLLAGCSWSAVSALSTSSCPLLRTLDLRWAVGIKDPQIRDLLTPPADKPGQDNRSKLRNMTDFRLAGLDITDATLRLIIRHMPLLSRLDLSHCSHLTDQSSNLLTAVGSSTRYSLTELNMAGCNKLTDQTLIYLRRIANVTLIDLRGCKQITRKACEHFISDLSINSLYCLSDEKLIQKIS
Description: Inhibition of recombinant FBXL11 (unknown origin) incubated for 15 mins prior to substrate addition by AlphaScreen method

HCT-116 [2] = test: Inhibition of LSD1/JmjC in human HCT116 cells assessed as increase in H3K4me2/3 level at 50 uM by Western blotting analysis; format: cell-based
HCT-116 [3] = test: Inhibition of LSD1/JmjC in human HCT116 cells assessed as increase in H3K9me3 level at 50 uM by Western blotting analysis; format: cell-based
LNCaP [4] = test: Induction of apoptosis in human LNCAP cells at 10 to 100 uM after 48 hrs by propidium iodide staining-based FACS analysis; format: functional, cell-based
LNCaP [5] = test: Antimigratory activity against human LNCAP cells at 50 uM after 72 hrs; format: functional, cell-based
HCT-116 [6] = test: Cell cycle arrest in human HCT116 cells assessed as accumulation at pre-G1 phase at 50 uM after 30 hrs by propidium iodide staining-based FACS analysis; format: functional
HCT-116 [7] = test: Induction of apoptosis in human HCT116 cells at 10 to 100 uM after 48 hrs by propidium iodide staining-based FACS analysis; format: functional, cell-based
HCT-116 [8] = test: Antimigratory activity against human HCT116 cells at 50 uM after 72 hrs; format: functional, cell-based
[9] = molecular target: Hypoxia-inducible factor 1-alpha inhibitor (Homo sapiens, UniProt Q9NWT6); test: Inhibition of FIH (unknown origin) by mass spectrometry
[10] = Induction of apoptosis in human MePR cells assessed as accumulation at pre-G1 phase at 50 uM after 24 hrs by propidium iodide staining-based FACS analysis (reference value: 8.4%); format: cell-based
LNCaP [11] = test: Inhibition of LSD1/JmjC in human LNCAP cells assessed as increase in H3K4me2/3 level at 50 uM by Western blotting analysis; format: cell-based
[12] = molecular target: T2, Amine oxidase [flavin-containing] B (Homo sapiens, UniProt P27338)
T2 sequence (P27338 whole entry): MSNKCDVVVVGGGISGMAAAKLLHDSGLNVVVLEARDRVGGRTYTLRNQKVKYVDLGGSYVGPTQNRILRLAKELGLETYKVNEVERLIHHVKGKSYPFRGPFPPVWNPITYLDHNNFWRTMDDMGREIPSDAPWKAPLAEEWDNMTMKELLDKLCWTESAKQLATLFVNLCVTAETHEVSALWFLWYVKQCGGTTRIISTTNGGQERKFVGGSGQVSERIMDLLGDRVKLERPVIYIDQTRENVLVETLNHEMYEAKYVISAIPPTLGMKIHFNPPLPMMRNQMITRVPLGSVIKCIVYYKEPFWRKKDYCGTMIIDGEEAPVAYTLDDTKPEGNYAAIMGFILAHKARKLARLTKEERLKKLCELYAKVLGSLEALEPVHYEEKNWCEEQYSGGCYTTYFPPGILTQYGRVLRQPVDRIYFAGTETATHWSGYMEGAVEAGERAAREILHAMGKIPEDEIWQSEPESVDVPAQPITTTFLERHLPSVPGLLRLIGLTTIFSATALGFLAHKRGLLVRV
Description: Inhibition of human recombinant MAO-B expressed in Pichia pastoris using benzylamine as substrate after 5 mins

LNCaP [13] = test: Cell cycle arrest in human LNCAP cells assessed as accumulation at pre-G1 phase at 50 uM after 30 hrs by propidium iodide staining-based FACS analysis; format: functional
LNCaP [14] = test: Cell cycle arrest in human LNCAP cells assessed as accumulation at G1 phase at 50 uM after 30 hrs by propidium iodide staining-based FACS analysis; format: functional
[15] = molecular target: T3, Amine oxidase [flavin-containing] A (Homo sapiens, UniProt P21397)
T3 sequence (P21397 whole entry): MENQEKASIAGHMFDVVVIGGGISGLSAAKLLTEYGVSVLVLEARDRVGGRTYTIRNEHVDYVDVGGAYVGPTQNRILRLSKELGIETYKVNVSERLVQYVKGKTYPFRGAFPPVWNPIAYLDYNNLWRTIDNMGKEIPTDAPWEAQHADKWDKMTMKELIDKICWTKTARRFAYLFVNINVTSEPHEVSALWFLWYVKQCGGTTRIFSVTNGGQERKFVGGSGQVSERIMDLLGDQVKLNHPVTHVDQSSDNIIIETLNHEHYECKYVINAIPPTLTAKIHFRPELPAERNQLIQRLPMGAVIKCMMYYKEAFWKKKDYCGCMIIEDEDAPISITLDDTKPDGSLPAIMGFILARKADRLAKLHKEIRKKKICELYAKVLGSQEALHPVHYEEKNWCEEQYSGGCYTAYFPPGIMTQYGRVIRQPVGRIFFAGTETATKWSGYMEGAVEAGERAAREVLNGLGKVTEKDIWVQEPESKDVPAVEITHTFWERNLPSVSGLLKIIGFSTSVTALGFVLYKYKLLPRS
Description: Inhibition of human recombinant MAO-A expressed in Pichia pastoris using kynuramine as substrate after 5 mins

Sequence of Hypoxia-inducible factor 1-alpha inhibitor (Q9NWT6 whole entry): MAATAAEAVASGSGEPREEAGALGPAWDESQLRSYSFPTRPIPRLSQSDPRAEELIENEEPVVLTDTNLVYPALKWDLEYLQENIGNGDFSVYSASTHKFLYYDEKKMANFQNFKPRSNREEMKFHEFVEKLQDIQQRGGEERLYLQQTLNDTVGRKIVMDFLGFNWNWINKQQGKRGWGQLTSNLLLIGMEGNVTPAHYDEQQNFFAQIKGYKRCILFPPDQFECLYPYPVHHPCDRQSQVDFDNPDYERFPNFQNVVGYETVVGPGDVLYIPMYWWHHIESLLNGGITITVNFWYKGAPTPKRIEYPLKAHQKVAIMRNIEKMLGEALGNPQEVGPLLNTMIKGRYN

| Compound | IC50 [1] [µM] | IC50 [9] [µM] | IC50 [12] [µM] | IC50 [15] [µM] | inhibition (HCT-116 [2]) | inhibition (HCT-116 [3]) | Activity (LNCaP [4]) | Activity (LNCaP [5]) | Activity (HCT-116 [6]) | Activity (HCT-116 [7]) | Activity (HCT-116 [8]) | Activity [10] [%] | inhibition (LNCaP [11]) | Activity (LNCaP [13]) | Activity (LNCaP [14]) |
| --- | --- | --- | --- | --- | --- | --- | --- | --- | --- | --- | --- | --- | --- | --- | --- |
| COC(=O)c1ccnc(-c2cc(C(=O)O)ccn2)c1 | 4.8 |  |  |  |  |  |  |  |  |  |  |  |  |  |  |
| N[C@H]1C[C@@H]1c1ccc(NC(=O)CCCNC(=O)c2ccc(O)c3ncccc23)cc1 (relative stereo) | 12 |  |  |  |  |  |  |  |  |  |  |  |  |  |  |
| Cl.N[C@H]1C[C@@H]1c1ccc(NC(=O)CCCCCNC(=O)c2ccc(O)c3ncccc23)cc1 (relative stereo) | 12 |  |  |  |  |  |  |  |  |  |  |  |  | Active | >=90% |
| COC(=O)c1ccnc(-c2cc(C(=O)Nc3ccc([C@@H]4C[C@H]4N)cc3)ccn2)c1.Cl (relative stereo) | 12.2 |  | 43.3 | < 1 | Active | Active | Active | inactive | Active | Active | Active | 12.8 | Active | Active | >=90% |

More lines, in order of falling IC50 [1], values ahead:

| IC50 [1] [µM] | IC50 [9] [µM] | IC50 [12] [µM] | IC50 [15] [µM] | Compound | inhibition (HCT-116 [2]) | inhibition (HCT-116 [3]) | Activity (LNCaP [4]) | Activity (LNCaP [5]) | Activity (HCT-116 [6]) | Activity (HCT-116 [7]) | Activity (HCT-116 [8]) | Activity [10] [%] | inhibition (LNCaP [11]) | Activity (LNCaP [13]) | Activity (LNCaP [14]) |
| --- | --- | --- | --- | --- | --- | --- | --- | --- | --- | --- | --- | --- | --- | --- | --- |
| 8.2 |  |  |  | N[C@H]1C[C@@H]1c1ccc(NC(=O)CCCCNC(=O)c2ccc(O)c3ncccc23)cc1 (relative stereo) |  |  |  |  |  |  |  |  |  |  |  |
| 7.8 | 25 | 81 | 8.9 | Cl.N[C@@H]1C[C@H]1c1ccc(NC(=O)c2ccc(O)c3ncccc23)cc1 (relative stereo) | Active | Active | Active | inactive | Active | Active | inactive | 4.2 | Active | Active | >=90% |
| 0.22 | > 100 | 47 | 35.4 | N[C@@H]1C[C@H]1c1ccc(NC(=O)c2ccnc(-c3cc(C(=O)O)ccn3)c2)cc1 (relative stereo) |  |  |  |  |  |  |  |  |  |  |  |
